Source: PMC8206213, “An L-2-hydroxyglutarate biosensor based on specific transcriptional regulator LhgR” (Nature Communications, 2021)
“And” between values parts separate entries of the source, which are not always exact repeats. Equal values may be shown once.

Test: LHGFR expressed in E. coli BL21(DE3), response to exogenous L-2-HG (time course and dose-response)
Type: cell-based
Conditions: Fig. 5a
Method: To characterize the sensitivity and specificity of LHGFR expressed in E. coli BL21(DE3), 90 μL cell suspensions following 8 h carbon starvation were mixed with 10 μL increasing concentrations of L-2-HG or other compounds, and then added into a black 96-well plate (total 100 μL/per well), the fluorescence intensities were determined using an EnSight microplate reader (PerkinElmer, USA) and the following instrument settings: excitation at 430 nm, emission at 485 nm (mTFP) and 528 nm (Venus), time intervals of 5 min, the temperature at 37 °C, and shake at 180 rpm.

For O=C(O)CC[C@H](O)C(=O)O [L-2-HG, L-2-Hydroxyglutarate], the Emission ratio (0.1 μM L-2-HG, 0 min) was 1.012 and 0.989 and 0.997, the Emission ratio (0.1 μM L-2-HG, 5 min) was 1.02 and 0.9981 and 1.004 and the Emission ratio (0.1 μM L-2-HG, 10 min) was 1.016 and 1.0025 and 1.009. The Emission ratio (0.1 μM L-2-HG, 15 min) was 1.023 and 1.007 and 1.026, the Emission ratio (0.1 μM L-2-HG, 20 min) was 1.034 and 1.009 and 1.038 and the Emission ratio (0.1 μM L-2-HG, 25 min) was 1.022 and 1.0081 and 1.026. The Emission ratio (0.1 μM L-2-HG, 30 min) was 1.026 and 1.01 and 1.02, the Emission ratio (0.1 μM L-2-HG, 35 min) was 1.021 and 1.007 and 1.025 and the Emission ratio (0.1 μM L-2-HG, 40 min) was 1.033 and 1.012 and 1.025. The Emission ratio (0.1 μM L-2-HG, 45 min) was 1.028 and 1.004 and 1.026, the Emission ratio (0.1 μM L-2-HG, 50 min) was 1.037 and 1.012 and 1.035 and the Emission ratio (0.1 μM L-2-HG, 55 min) was 1.031 and 1.006 and 1.033. For the same compound, the Emission ratio (0.1 μM L-2-HG, 60 min) was 1.022 (2×) and 1.012, the Emission ratio (0.1 μM L-2-HG, 65 min) was 1.024 and 1.014 and 1.029 and the Emission ratio (0.1 μM L-2-HG, 70 min) was 1.0212 and 1.016 and 1.02. The Emission ratio (0.1 μM L-2-HG, 75 min) was 1.025 (2×) and 1.033, the Emission ratio (0.1 μM L-2-HG, 80 min) was 1.031 and 1.009 and 1.021 and the Emission ratio (0.1 μM L-2-HG, 85 min) was 1.0115 and 1.016 and 1.023. For the same compound, the Emission ratio (0.1 μM L-2-HG, 90 min) was 1.021 (2×) and 1.032, the Emission ratio (1 μM L-2-HG, 0 min) was 0.9972 and 0.975 and 0.9871 and the Emission ratio (1 μM L-2-HG, 5 min) was 1.009 and 0.9962 and 0.9991. The Emission ratio (1 μM L-2-HG, 10 min) was 1.023 and 0.9982 and 1.005, the Emission ratio (1 μM L-2-HG, 15 min) was 1.0208 and 0.9996 and 1.009 and the Emission ratio (1 μM L-2-HG, 20 min) was 1.0328 and 1.012 and 1.019. For the same compound, the Emission ratio (1 μM L-2-HG, 25 min) was 1.021 and 1.008 and 1.022, the Emission ratio (1 μM L-2-HG, 30 min) was 1.0327 and 1.008 (2×) and the Emission ratio (1 μM L-2-HG, 35 min) was 1.03 and 0.9986 and 1.019. For the same compound, the Emission ratio (1 μM L-2-HG, 40 min) was 1.036 and 1.0055 and 1.012, the Emission ratio (1 μM L-2-HG, 45 min) was 1.034 and 0.9995 and 1.022 and the Emission ratio (1 μM L-2-HG, 50 min) was 1.045 and 1.003 and 1.021. For the same compound, the Emission ratio (1 μM L-2-HG, 55 min) was 1.024 and 1.003 and 1.034, the Emission ratio (1 μM L-2-HG, 60 min) was 1.027 and 1.003 and 1.025 and the Emission ratio (1 μM L-2-HG, 65 min) was 1.026 and 0.994 and 1.032. For the same compound, the Emission ratio (1 μM L-2-HG, 70 min) was 1.026 and 0.9971 and 1.03, the Emission ratio (1 μM L-2-HG, 75 min) was 1.025 and 1.005 and 1.037 and the Emission ratio (1 μM L-2-HG, 80 min) was 1.033 (2×) and 0.9987. The Emission ratio (1 μM L-2-HG, 85 min) was 1.013 and 1.0091 and 1.026, the Emission ratio (1 μM L-2-HG, 90 min) was 1.034 and 1.005 and 1.032 and the Emission ratio (10 μM L-2-HG, 0 min) was 0.9974 and 0.9749 and 0.9795. The Emission ratio (10 μM L-2-HG, 5 min) was 1.027 and 0.9941 and 0.9973, the Emission ratio (10 μM L-2-HG, 10 min) was 1.031 and 0.9958 and 1.001 and the Emission ratio (10 μM L-2-HG, 15 min) was 1.0289 and 1.0021 and 1.009. The Emission ratio (10 μM L-2-HG, 20 min) was 1.045 and 1 and 1.01, the Emission ratio (10 μM L-2-HG, 25 min) was 1.039 and 0.9977 and 1.015 and the Emission ratio (10 μM L-2-HG, 30 min) was 1.037 and 0.9978 and 1.007. For the same compound, the Emission ratio (10 μM L-2-HG, 35 min) was 1.04 and 1.003 and 1.015, the Emission ratio (10 μM L-2-HG, 40 min) was 1.03 and 1 and 1.011 and the Emission ratio (10 μM L-2-HG, 45 min) was 1.029 and 1.001 and 1.0118. For the same compound, the Emission ratio (10 μM L-2-HG, 50 min) was 1.038 and 1.001 and 1.016, the Emission ratio (10 μM L-2-HG, 55 min) was 1.018 and 0.9882 and 1.017 and the Emission ratio (10 μM L-2-HG, 60 min) was 1.019 (2×) and 0.997. The Emission ratio (10 μM L-2-HG, 65 min) was 1.0139 and 0.9961 and 1.023, the Emission ratio (10 μM L-2-HG, 70 min) was 1.0139 and 0.9946 and 1.028 and the Emission ratio (10 μM L-2-HG, 75 min) was 1.017 and 0.9951 and 1.034. For the same compound, the Emission ratio (10 μM L-2-HG, 80 min) was 1.022 and 0.9886 and 1.029, the Emission ratio (10 μM L-2-HG, 85 min) was 1.023 and 0.9843 and 1.034 and the Emission ratio (10 μM L-2-HG, 90 min) was 1.009 and 0.9801 and 1.033. For the same compound, the Emission ratio (20 μM L-2-HG, 0 min) was 0.9789 and 0.9659 and 0.9802, the Emission ratio (20 μM L-2-HG, 5 min) was 0.9958 and 0.9868 and 0.9915 and the Emission ratio (20 μM L-2-HG, 10 min) was 1.008 and 0.9945 and 0.999. For the same compound, the Emission ratio (20 μM L-2-HG, 15 min) was 1.027 and 1.004 and 1.005, the Emission ratio (20 μM L-2-HG, 20 min) was 1.024 and 1.0082 and 1 and the Emission ratio (20 μM L-2-HG, 25 min) was 1.026 and 1.013 and 1.0078. For the same compound, the Emission ratio (20 μM L-2-HG, 30 min) was 1.036 and 1.005 and 1.016, the Emission ratio (20 μM L-2-HG, 35 min) was 1.021 and 1.001 and 1.019 and the Emission ratio (20 μM L-2-HG, 40 min) was 1.043 and 1.002 and 1.018. For the same compound, the Emission ratio (20 μM L-2-HG, 45 min) was 1.041 and 1.009 and 1.022, the Emission ratio (20 μM L-2-HG, 50 min) was 1.04 and 1.006 and 1.0167 and the Emission ratio (20 μM L-2-HG, 55 min) was 1.015 and 1.004 and 1.027. For the same compound, the Emission ratio (20 μM L-2-HG, 60 min) was 1.0355 and 0.9994 and 1.024, the Emission ratio (20 μM L-2-HG, 65 min) was 1.024 and 1.003 and 1.019 and the Emission ratio (20 μM L-2-HG, 70 min) was 1.023 and 0.9958 and 1.025. For the same compound, the Emission ratio (20 μM L-2-HG, 75 min) was 1.0243 and 1.007 and 1.0344, the Emission ratio (20 μM L-2-HG, 80 min) was 1.023 and 0.9899 and 1.029 and the Emission ratio (20 μM L-2-HG, 85 min) was 1.012 and 1.001 and 1.028. The Emission ratio (20 μM L-2-HG, 90 min) was 1.022 and 0.9961 and 1.035, the Emission ratio (100 μM L-2-HG, 0 min) was 0.9864 and 0.9735 and 0.9711 and the Emission ratio (100 μM L-2-HG, 5 min) was 1.005 and 0.9924 and 0.9939. The Emission ratio (100 μM L-2-HG, 10 min) was 1.009 and 1.008 and 1.012, the Emission ratio (100 μM L-2-HG, 15 min) was 1.0245 and 1.016 and 1.019 and the Emission ratio (100 μM L-2-HG, 20 min) was 1.0318 and 1.022 and 1.0268. The Emission ratio (100 μM L-2-HG, 25 min) was 1.0276 and 1.029 and 1.024, the Emission ratio (100 μM L-2-HG, 30 min) was 1.034 and 1.025 and 1.028 and the Emission ratio (100 μM L-2-HG, 35 min) was 1.039 and 1.026 and 1.037. The Emission ratio (100 μM L-2-HG, 40 min) was 1.0304 and 1.029 and 1.028.
